Measured values as given in the NIST ThermoML archive (doi:10.1021/je5010214).

Conditions: Liquid, Vibrating tube method

CCCCCCC [heptane]
Conditions	mass density [kg/m3]
323.15 K, 34081 kPa	690.434
323.15 K, 35113 kPa	691.624
323.15 K, 37953 kPa	693.659
323.15 K, 42011 kPa	696.516
323.15 K, 48025 kPa	700.814
323.15 K, 49934 kPa	702.105
323.15 K, 52114 kPa	703.681
323.15 K, 54964 kPa	705.509
323.15 K, 58045 kPa	707.475
323.15 K, 60050 kPa	708.827
323.15 K, 62131 kPa	710.008
323.15 K, 64999 kPa	711.842
323.16 K, 920.7 kPa	659.343
323.16 K, 27958 kPa	685.975
323.16 K, 30055 kPa	687.083
323.16 K, 33067 kPa	689.946
323.16 K, 40047 kPa	695.097
323.16 K, 44937 kPa	698.783
323.16 K, 66131 kPa	712.551
328.15 K, 100.8 kPa	653.868
328.15 K, 289.9 kPa	654.182
328.15 K, 897.5 kPa	654.815
328.15 K, 994.1 kPa	655.012
328.15 K, 1988.8 kPa	656.162
328.15 K, 2996.7 kPa	657.408
328.15 K, 5013.4 kPa	659.794
328.15 K, 6974.9 kPa	662.023
328.15 K, 9017 kPa	664.204
328.15 K, 10040 kPa	665.257
328.15 K, 24924 kPa	679.489
328.15 K, 27979 kPa	682.036
328.15 K, 29958 kPa	683.395
328.15 K, 32060 kPa	685.102
328.15 K, 33066 kPa	685.969
328.15 K, 33107 kPa	685.992
328.15 K, 34013 kPa	687.01
328.15 K, 35030 kPa	687.796
328.15 K, 38010 kPa	690.025
328.15 K, 39969 kPa	691.415
328.15 K, 41959 kPa	692.865
328.15 K, 44953 kPa	695.094
328.15 K, 47978 kPa	697.371
328.15 K, 49926 kPa	698.804
328.15 K, 51997 kPa	700.259
328.15 K, 54947 kPa	702.284
328.15 K, 57939 kPa	704.221
328.15 K, 59991 kPa	705.64
328.15 K, 61982 kPa	707.057
328.15 K, 65032 kPa	708.835
328.15 K, 66046 kPa	709.499
328.16 K, 501 kPa	654.211
328.16 K, 12210 kPa	667.562
328.16 K, 15055 kPa	670.204
328.16 K, 18061 kPa	673.216
328.16 K, 20279 kPa	675.247
328.16 K, 22013 kPa	676.775
333.15 K, 100.4 kPa	649.302
333.15 K, 532.6 kPa	649.653
333.15 K, 897.8 kPa	650.259
333.15 K, 1987.2 kPa	651.687
333.15 K, 3023.4 kPa	653.063
333.15 K, 4997.4 kPa	655.338
333.15 K, 7002.4 kPa	657.844
333.15 K, 9032 kPa	660.047
333.15 K, 10210 kPa	661.268
333.15 K, 15008 kPa	666.206
333.15 K, 22034 kPa	672.882
333.15 K, 28040 kPa	678.188
333.15 K, 30016 kPa	679.579
333.15 K, 32067 kPa	681.185
333.15 K, 32977 kPa	681.946
333.15 K, 34086 kPa	683.474
333.15 K, 35075 kPa	684.235
333.15 K, 37894 kPa	686.324
333.15 K, 40111 kPa	687.848
333.15 K, 41947 kPa	689.191
333.15 K, 44974 kPa	691.567
333.15 K, 47936 kPa	693.899
333.15 K, 49920 kPa	695.372
333.15 K, 51953 kPa	696.893
333.15 K, 54876 kPa	699.008
333.15 K, 58057 kPa	700.988
333.15 K, 59993 kPa	702.482
333.15 K, 62049 kPa	703.927
333.15 K, 64970 kPa	705.65
333.15 K, 66005 kPa	706.481
333.16 K, 303.5 kPa	649.622
333.16 K, 1003 kPa	650.554
333.16 K, 12011 kPa	663.322
333.16 K, 17992 kPa	669.217
333.16 K, 20036 kPa	671.108
333.16 K, 25027 kPa	675.678
333.16 K, 33073 kPa	682.004
338.15 K, 100.4 kPa	644.915
338.15 K, 309.8 kPa	645.161
338.15 K, 561.6 kPa	645.341
338.15 K, 898.5 kPa	645.924
338.15 K, 1014.1 kPa	646.212
338.15 K, 2936.1 kPa	648.694
338.15 K, 5018.6 kPa	651.205
338.15 K, 10034 kPa	657.126
338.15 K, 14885 kPa	662.203
338.15 K, 17956 kPa	665.481
338.15 K, 19927 kPa	667.369
338.15 K, 22041 kPa	669.319
338.15 K, 25026 kPa	672.169
338.15 K, 29994 kPa	676.134
338.15 K, 32882 kPa	678.515
338.15 K, 33937 kPa	679.921
338.15 K, 35012 kPa	680.879
338.15 K, 39987 kPa	684.582
338.15 K, 41990 kPa	686.092
338.15 K, 44978 kPa	688.463
338.15 K, 47971 kPa	690.744
338.15 K, 49999 kPa	692.38
338.15 K, 52127 kPa	693.976
338.15 K, 57940 kPa	697.82
338.15 K, 60014 kPa	699.459
338.15 K, 65012 kPa	702.688
338.15 K, 66057 kPa	703.55
338.16 K, 2000.2 kPa	647.409
338.16 K, 6917.3 kPa	653.552
338.16 K, 9046.9 kPa	656.063
338.16 K, 11959 kPa	659.361
338.16 K, 27976 kPa	674.704
338.16 K, 31949 kPa	677.899
338.16 K, 32882 kPa	678.499
338.16 K, 37962 kPa	683.24
338.16 K, 54992 kPa	696.066
338.16 K, 62074 kPa	700.918
343.15 K, 105.1 kPa	640.758
343.15 K, 297.3 kPa	640.918
343.15 K, 520.3 kPa	641.218
343.15 K, 911.7 kPa	641.765
343.15 K, 1017.7 kPa	641.938
343.15 K, 1994.6 kPa	643.242
343.15 K, 2968.3 kPa	644.553
343.15 K, 4994.8 kPa	647.152
343.15 K, 6976.6 kPa	649.726
343.15 K, 9002.6 kPa	652.141
343.15 K, 10060 kPa	653.267
343.15 K, 12024 kPa	655.625
343.15 K, 14928 kPa	658.769
343.15 K, 17975 kPa	661.975
343.15 K, 19985 kPa	664
343.15 K, 22033 kPa	666.001
343.15 K, 25090 kPa	668.93
343.15 K, 28045 kPa	671.724
343.15 K, 30082 kPa	673.379
343.15 K, 32170 kPa	675.296
343.15 K, 33053 kPa	676.043
343.15 K, 33097 kPa	676.076
343.15 K, 35030 kPa	677.808
343.15 K, 37943 kPa	680.185
343.15 K, 40012 kPa	681.817
343.15 K, 41972 kPa	683.353
343.15 K, 44927 kPa	685.751
